Patent US12441733B2, “Substituted 2,4-dioxotetrahydropyrimidines as intermediates in the synthesis of bruton's tyrosine kinase inhibitors” (Novartis AG, priority 2018, dated 2025)

Key:
Assay type in all cases: cell-based
BTK-GFP = target: T1, BTK-GFP (Homo sapiens, UniProt Q06187+Q96SW2); assay: BTK-GFP protein abundance flow cytometry assay in HEK293A cells; conditions: HEK293A BTK-GFP-iresRFP cells, 24 h; for DC50: GFP signal by flow cytometry, concentration at which 50% maximal degradation was observed; for BTK deg Amax: % protein remaining at the concentration at which maximum degradation is seen
T1 construct: expressed in transfected cells; host or cells: HEK293A (Invitrogen R70507), lentiviral transduction with pLenti6-BTK-GFP-Ires-RFP, blasticidin selection
T1 sequence (Q06187 whole entry): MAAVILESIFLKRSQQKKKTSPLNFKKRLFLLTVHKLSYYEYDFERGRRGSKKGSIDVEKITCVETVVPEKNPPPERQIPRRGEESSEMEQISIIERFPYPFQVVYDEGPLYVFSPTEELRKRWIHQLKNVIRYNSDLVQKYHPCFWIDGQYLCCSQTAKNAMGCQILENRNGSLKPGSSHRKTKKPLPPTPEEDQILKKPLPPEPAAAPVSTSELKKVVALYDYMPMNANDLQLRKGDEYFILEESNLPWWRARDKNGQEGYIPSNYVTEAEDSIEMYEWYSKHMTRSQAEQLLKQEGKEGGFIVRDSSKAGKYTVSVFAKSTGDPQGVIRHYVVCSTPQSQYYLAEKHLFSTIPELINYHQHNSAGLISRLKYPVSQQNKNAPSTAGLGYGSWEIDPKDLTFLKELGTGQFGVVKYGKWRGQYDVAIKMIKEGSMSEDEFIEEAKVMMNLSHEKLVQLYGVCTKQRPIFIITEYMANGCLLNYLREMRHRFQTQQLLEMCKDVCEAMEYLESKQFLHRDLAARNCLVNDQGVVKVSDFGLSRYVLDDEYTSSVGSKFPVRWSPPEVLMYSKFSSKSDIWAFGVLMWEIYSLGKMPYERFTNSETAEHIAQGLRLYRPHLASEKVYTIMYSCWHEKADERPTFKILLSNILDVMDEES
T1 sequence (Q96SW2 whole entry): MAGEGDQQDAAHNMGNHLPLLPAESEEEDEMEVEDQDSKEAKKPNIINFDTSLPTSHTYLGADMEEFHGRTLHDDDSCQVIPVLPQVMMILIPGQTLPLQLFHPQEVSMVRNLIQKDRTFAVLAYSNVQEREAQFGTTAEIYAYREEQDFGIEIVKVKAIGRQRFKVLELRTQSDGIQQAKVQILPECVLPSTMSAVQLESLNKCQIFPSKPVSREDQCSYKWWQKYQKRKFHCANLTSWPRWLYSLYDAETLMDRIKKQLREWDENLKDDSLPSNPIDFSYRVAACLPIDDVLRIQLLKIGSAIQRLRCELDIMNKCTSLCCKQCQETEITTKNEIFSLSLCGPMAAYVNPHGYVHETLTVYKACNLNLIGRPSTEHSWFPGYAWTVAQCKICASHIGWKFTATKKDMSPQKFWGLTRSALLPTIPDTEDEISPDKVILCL
T1 sequence (Q16531 whole entry partner): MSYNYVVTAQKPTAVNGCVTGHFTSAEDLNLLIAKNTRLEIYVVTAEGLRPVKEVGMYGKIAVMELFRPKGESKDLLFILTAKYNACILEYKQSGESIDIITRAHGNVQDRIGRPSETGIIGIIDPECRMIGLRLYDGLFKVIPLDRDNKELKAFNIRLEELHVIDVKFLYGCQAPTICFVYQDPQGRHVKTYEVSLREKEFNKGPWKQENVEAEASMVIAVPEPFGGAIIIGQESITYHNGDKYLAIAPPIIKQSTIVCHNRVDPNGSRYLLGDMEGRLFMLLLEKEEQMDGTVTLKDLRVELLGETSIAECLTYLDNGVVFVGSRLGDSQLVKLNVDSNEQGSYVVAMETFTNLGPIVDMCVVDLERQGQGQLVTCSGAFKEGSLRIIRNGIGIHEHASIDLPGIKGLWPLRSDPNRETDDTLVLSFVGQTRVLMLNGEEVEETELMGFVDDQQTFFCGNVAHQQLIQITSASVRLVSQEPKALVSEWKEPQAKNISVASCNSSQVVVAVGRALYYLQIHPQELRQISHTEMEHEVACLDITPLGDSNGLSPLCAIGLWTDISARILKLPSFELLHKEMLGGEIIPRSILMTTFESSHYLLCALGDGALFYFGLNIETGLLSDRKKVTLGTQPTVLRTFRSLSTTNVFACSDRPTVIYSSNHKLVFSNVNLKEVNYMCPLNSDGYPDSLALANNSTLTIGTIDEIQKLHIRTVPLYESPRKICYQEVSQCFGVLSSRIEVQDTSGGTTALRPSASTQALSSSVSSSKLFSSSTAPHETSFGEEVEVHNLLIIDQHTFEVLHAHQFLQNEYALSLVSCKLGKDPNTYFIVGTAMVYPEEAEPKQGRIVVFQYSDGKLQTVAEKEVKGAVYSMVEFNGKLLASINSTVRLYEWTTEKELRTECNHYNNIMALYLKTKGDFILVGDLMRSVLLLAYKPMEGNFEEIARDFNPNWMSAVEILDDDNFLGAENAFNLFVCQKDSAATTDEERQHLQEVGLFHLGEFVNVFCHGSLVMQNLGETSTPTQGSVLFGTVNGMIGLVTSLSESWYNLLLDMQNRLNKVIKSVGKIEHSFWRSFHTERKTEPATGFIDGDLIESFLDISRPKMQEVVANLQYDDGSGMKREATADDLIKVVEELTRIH
Description: (§1) Compounds of the invention were tested in the following cellular assays. The terms in Table 2 are defined as follows: DC50 refers to the concentration at which 50% maximal degradation was observed; deg Amax is the extent of degradation and the value refers to the % protein remaining at the concentration at which maximum degradation is seen; ProI GI50 refers to the proliferation data and defines the concentration at which 50% growth inhibition was observed compared to the vehicle treated control at the end of the incubation time. TMD8 cells are BTK dependent and OCI-LY3 cells are BTK independent.
BTK-GFP and IKZF3-GFP protein abundance flow cytometry assay in HEK293A cells:
Degradation of BTK or IKZF3 was measured in HEK293A cells (Invitrogen R70507) expressing either BTK-GFP and RFP or IKZF3-GFP and RFP from a stably integrated bicistronic BTK-GFP-iresRFP or IKZF3-GFP-iresRFP construct, respectively. Reduction of the GFP signal measured by flow cytometry served as readout for BTK or IKZF3 degradation after degrader treatment.
i) Cloning of the pLenti6-BTK-GFP-1Res-RFP and IKZF3-GFP-Ires-RFP Sensor Vectors
The bicistronic BTK-GFP-iresRFP construct is based on a pLenti6-DEST vector backbone where GFP was introduced into the unique Xho1 site downstream of the destination cassette (DEST) and RFP was cloned behind an internal ribosomal entry site (Ires).
In detail, the sensor construct was engineered by replacing NanoLuciferase (NLuc) by GFP and FireFly luciferase (FF) by RFP from pLenti6-DEST-NLuc-Ires-FF.
The pLenti6-DEST-NLuc-Ires-FF sensor construct was cloned by replacing eGFP from pLenti6-DEST-ires-eGFP with a synthesized stuffer element (encoding Ires-FF with FF flanked by two Nhe1 restriction sites) using blunt end cloning replacing Ires-eGFP between the two PmII. To enable C-terminal tagging with NanoLuciferase (NLuc), NLuc was amplified from pNL1.1 (Promega #N1001) using linker primers with Xho1 sites for ligating into linearized pLenti6-DEST-Ires-FF using Xho1 digest resulting in the construct pLenti6-DEST-NLuc-Ires-FF.
The pLenti6-DEST-NLuc-Ires-FF served as base vector for cloning pLenti6-DEST-GFP-Ires-RFP using Gibson assembly to replace FF with RFP and NLuc with GFP. In a first round FF was replaced by RFP by amplifying RFP from a template using the following Gibson assembly linker primers (Gibson-Nhe1 RFPfw, […]gctagc[…] (SEQ ID NO: 1); Gibson-Nhe1 RFP-Stoprev, […]ctagc[…] (SEQ ID NO: 2)) to clone into pLenti6-DEST-NLuc-Ires-FF digested with Nhe1 and gel-purified to remove the FF fragment. The resulting pLenti6-DEST-NLuc-Ires-RFP vector served as the template to replace NLuc with GFP by amplifying GFP from a template using following Gibson assembly linker primers (Gibson-Xho1 GFPfw, […]c[…] (SEQ ID NO: 3); Gibson-Xho1 GFP-Stoprev, […] (SEQ ID NO: 4)) to clone into pLenti6-DEST-NLuc-Ires-RFP digested with Xho1 and gel-purified to remove the NLuc fragment. All Gibson assembly reactions were performed with Gibson assembly Master Mix (New England Biolabs NEB E261 IL) according to manufacturer's manual, resulting in the destination vector pLenti6-DEST-GFP-Ires-RFP to allow Gateway cloning. To enable gateway cloning and C-terminal GFP tagging of BTK, the BTK open reading frame (ORF) was first shuttled from a pcDNA-DEST40-BTK vector (Invitrogen library ID INV_20090504v1) into pDONR221 (Invitrogen 12536-017) vector using a gateway BP reaction according to the manufacturer's manual (Invitrogen 11789-013) resulting in the novel construct pENTR221-BTK. For C-terminal tagging the STOP codon was mutated to a leucine performing a mutagenesis reaction with the following primers (pENTR221-BTK Quikchange STOP-Leu fw, gtcatggatgaagaatccTTGaacccagctttcttgtac; pENTR221-BTK Quikchange STOP-Leu REVC, gtacaagaaagctgggttCAAggattcttcatccatgac) using the QuikChange Lightning mutagenesis kit (Agilent Technologies #210518) according to the manufacturer's manual, resulting in pENTR221-BTK (STOP-Leu). […]

TMD8 cells = assay: Resazurin cell viability (proliferation) assay in TMD8 DLBCL cells; conditions: Homo sapiens, TMD8 cells (BTK dependent), 72 h, 50% growth inhibition vs vehicle, read-out: TMD8 Prol GI50
Description: as §1
(§2) Cell Viability Assay in DLBCL (Diffuse Large B-Cell Lymphoma) Cells:
(§3) The effect of the BTK compounds on cell proliferation was measured by a Resazurin (Sigma, #R7017) based cell viability assay. TMD8 (BTK compound sensitive) and OCI-LY3 (BTK compound insensitive) cells were incubated for 72 h at 37° C. and 5% CO2 with the corresponding compound, Resazurin is a non-toxic, cell-permeable substrate that is virtually non-fluorescent. Upon entering living cells, Resazurin (Sigma, #R7017) is reduced to highly fluorescent Resorufin. The metabolic activity was assessed by measuring the fluorescence signal (ex. 530 nm; em. 600 nm).
(§4) TMD8 and OCI-Ly3 cells were seeded at day 0 in triplicates at a cell density of 1×10^4 cells per 150 μl/well in a 96-well plate (Costar #3904). Additional plates were prepared, in order to assess the basal metabolic activity of both cell lines at the beginning of the experiment. For these reference plates, Resazurin (Sigma, #R7017) was added to a final concentration of 13 μg/ml 3 h post seeding and was incubated for 2 h at 37° C. and 5% CO2. Following incubation, the fluorescent signal intensity of the 96-well plates was measured on a Mithras LB940 multimode plate reader at 530/600 nm (Berthold Technologies, Germanyl).
(§5) In parallel, 3 h post-seeding, test-plates were treated with compound at various concentrations, or with vehicle (DMSO) alone for 3 days. The compound addition to the plates was performed by using a HP D300 digital dispenser (TECAN, Switzerland). The compounds were tested in triplicate, 8-point serial dilution (1:4), with a start concentration of 10 μM for OCI-LY3 and 1 μM for the TMD8 cells, respectively. To assess the relative proliferation of the cells, Resazurin was added to each well directly to the medium to a final concentration of 13 μg/ml. The plates were incubated for 2 h at 37° C. and 5% CO2 to result in a 72 h endpoint. Following incubation, the fluorescent signal intensity of the 96-well plates were measured on a Mithras LB940 multimode plate reader at 530/600 nm (Berthold Technologies, Germanyl). The formation of Resorufin dye directly correlates with the number of metabolically active cells. For each triplicate treatment the mean and standard deviation were calculated and analyzed via curve fitting software to determine the respective compound concentration resulting in 50% growth inhibition (GI50) values. For each compound GI50 values were typically determined from at least 2 entirely independent experiments.
TMD8 cells were acquired through a license agreement with Tokyo Medical and Dental University, Japan. Cells are cultivated in MEM Alpha (BioConcept, #1-23F01-1, lot. LB04262P) supplemented with 10% FCS (HyClone, GE #SH30066.03, lot AB3217603), 2 mM L-Glutamine (BioConcept, #5-10K50-H, lot. LA03467P), 1% Pen/Strep (BioConcept, #4-01F00-H, lot. LB04235P).

OCI-LY3 cells = assay: Resazurin cell viability (proliferation) assay in OCI-LY3 DLBCL cells; conditions: Homo sapiens, OCI-LY3 cells (BTK independent), 72 h, 50% growth inhibition vs vehicle, read-out: OCI-LY3 Prol GI50
Description: as §1, §2, §3, §4, §5
OCI-LY3 cells were acquired through a license agreement with University Health Network, Toronto, Canada. Cells are cultivated in RPM11640 media (Gibco, #61870-010, lot. 1894759), supplemented with 10% FCS (HyClone, GE #SH30066.03, lot AB217603), 2 mM L-Glutamine (BioConcept, #5-10K50-H, lot. LA03467P), 1 mM Sodium Pyruvate (BioConcept, #5-60F00-H, lot. LB10510P), 10 mM HEPES (Gibco, #15630-056, lot. 1854074), 1% Pen/Strep (BioConcept, #4-01F00-H, lot. LB04235P).

COc1ccc(C(=O)N2CCN(CCN3CCC(OCc4ccc(-c5cc6c(-c7cc(F)cc(NC(=O)c8ccc(C(C)(C)O)cc8F)c7C)ncnc6[nH]5)cc4)CC3)CC2)cc1N1CCC(=O)NC1=O [Compound 21, N-(3-(6-(4-(((1-(2-(4-(3-(2,4-dioxotetrahydropyrimidin-1(2H)-yl)-4-methoxybenzoyl)piperazin-1-yl)ethyl)piperidin-4-yl)oxyl)methyl)phenyl)-7H-pyrrolo[2,3-d]pyrimidin-4-yl)-5-fluoro-2-methylphenyl)-2-fluoro-4-(2-hydroxypropan-2-yl)benzamide]
DC50 (BTK-GFP): 1.8 nM
BTK deg Amax (BTK-GFP): 3.7%
GI50 (TMD8 cells): 0.6 nM
GI50 (OCI-LY3 cells): 6830 nM

COc1ccc(C(=O)NCCCCN2CCN(Cc3ccc(-c4cc5c(-c6cc(F)cc(NC(=O)c7ccc(C(C)(C)O)cc7F)c6C)ncnc5[nH]4)cc3)CC2)cc1N1CCC(=O)NC1=O [Compound 26, N-(3-(6-(4-((4-(4-(3-(2,4-Dioxotetrahydropyrimidin-1(2H)-yl)-4-methoxybenzamido)butyl)piperazin-1-yl)methyl)phenyl)-7H-pyrrolo[2,3-d]pyrimidin-4-yl)-5-fluoro-2-methylphenyl)-2-fluoro-4-(2-hydroxypropan-2-yl)benzamide]
DC50 (BTK-GFP): 25 nM
BTK deg Amax (BTK-GFP): 4.3%
GI50 (TMD8 cells): 1.92 nM
GI50 (OCI-LY3 cells): 4760 nM

Cc1cc(F)c(C(=O)N(C)CCCCCNCc2ccc(-c3cc4c(-c5cc(F)cc(NC(=O)c6ccc(C(C)(C)O)cc6F)c5C)ncnc4[nH]3)cc2)cc1N1CCC(=O)NC1=O [Compound 28, 5-(2,4-Dioxotetrahydropyrimidin-1(2H)-yl)-2-fluoro-N-(5-((4-(4-(5-fluoro-3-(2-fluoro-4-(2-hydroxypropan-2-yl)benzamido)-2-methylphenyl)-7H-pyrrolo[2,3-d]pyrimidin-6-yl)benzyl)amino)pentyl)-N,4-dimethylbenzamide]
DC50 (BTK-GFP): 93.7 nM
BTK deg Amax (BTK-GFP): 12.1%
GI50 (TMD8 cells): 7.16 nM
GI50 (OCI-LY3 cells): 6120 nM

COc1ccc(C(=O)N2CC3(CCN(Cc4ccc(-c5cc6c(-c7cc(F)cc(NC(=O)c8ccc(C(C)(C)O)cc8F)c7C)ncnc6[nH]5)cc4)CC3)C2)cc1N1CCC(=O)NC1=O [Compound 32]
DC50 (BTK-GFP): 34.2 nM
BTK deg Amax (BTK-GFP): 15.4%
GI50 (TMD8 cells): 6.31 nM
GI50 (OCI-LY3 cells): 7440 nM

COc1ccc(C(=O)N2CCC(C(=O)N3CCN(Cc4ccc(-c5cc6c(-c7cc(F)cc(NC(=O)c8ccc(C(C)(C)O)cc8F)c7C)ncnc6[nH]5)cc4)CC3)CC2)cc1N1CCC(=O)NC1=O [Compound 33, N-(3-(6-(4-((4-(1-(3-(2,4-dioxotetrahydropyrimidin-1(2H)-yl)-4-methoxybenzoyl)piperidine-4-carbonyl)piperazin-1-yl)methyl)phenyl)-7H-pyrrolo[2,3-d]pyrimidin-4-yl)-5-fluoro-2-methylphenyl)-2-fluoro-4-(2-hydroxypropan-2-yl)benzamide]
DC50 (BTK-GFP): 22.2 nM
BTK deg Amax (BTK-GFP): 5.9%
GI50 (TMD8 cells): 3.97 nM
GI50 (OCI-LY3 cells): 4280 nM

COc1ccc(C(=O)NCCN2CCC3(CC2)CCN(Cc2ccc(-c4cc5c(-c6cc(F)cc(NC(=O)c7ccc(C(C)(C)O)cc7F)c6C)ncnc5[nH]4)cc2)C3)cc1N1CCC(=O)NC1=O [Compound 35, N-(3-(6-(4-((8-(2-(3-(2,4-Dioxotetrahydropyrimidin-1(2H)-yl)-4-methoxybenzamido)ethyl)-2,8-diazaspiro[4.5]decan-2-yl)methyl)phenyl)-7H-pyrrolo[2,3-d]pyrimidin-4-yl)-5-fluoro-2-methylphenyl)-2-fluoro-4-(2-hydroxypropan-2-yl)benzamide]
DC50 (BTK-GFP): 61.1 nM
BTK deg Amax (BTK-GFP): 7.6%
GI50 (TMD8 cells): 3.46 nM
GI50 (OCI-LY3 cells): 9160 nM

COc1ccc(C(=O)N2CCN(CCNCCCCOc3ccc(-c4cc5c(-c6cc(F)cc(NC(=O)c7ccc(C(C)(C)O)cc7F)c6C)ncnc5[nH]4)cc3)CC2)cc1N1CCC(=O)NC1=O [Compound 36, N-(3-(6-(4-(4-((2-(4-(3-(2,4-dioxotetrahydropyrimidin-1(2H)-yl)-4-methoxybenzoyl)piperazin-1-yl)ethyl)amino)butoxyl)phenyl)-7H-pyrrolo[2,3-d]pyrimidin-4-yl)-5-fluoro-2-methylphenyl)-2-fluoro-4-(2-hydroxypropan-2-yl)benzamide]
DC50 (BTK-GFP): 37 nM
BTK deg Amax (BTK-GFP): 2.4%
GI50 (TMD8 cells): 2.94 nM
GI50 (OCI-LY3 cells): > 10000 nM
